Measurements taken from patent publication US20080220416A1, “Compositions for Inhibiting Cell Growth and Inducing Apoptosis in Cancer Cells and Methods of Use Thereof” (THE BOARD OF TRUSTEES OF THE UNIVERSITY OF ILLINOI, priority 2004, published 2008).
Square brackets hold non-standard residues; d marks the D form. Peptide text beside a SMILES is read from it. * marks the point of attachment. Nle = CCCC[C@H](N)C(=O)O; Cbz = O=C(OCc1ccccc1)*

Assays:
C8161 melanoma tumors = assay: C8161 melanoma xenograft in Nude mice, peri-tumoral bortezomib
RJ002L melanoma cells = assay: Dosing study versus chemotherapeutic agents, killing of RJ002L melanoma cells; type: cell-based, human
Description: An initial dosing study comparing z-Leu-Leu-Nle-CHO against three different chemotherapeutic agents (i.e., adriamycin, etoposide, and cisplatin) was performed to evaluate the relative effectiveness of z-Leu-Leu-Nle-CHO in killing melanoma cells. In agreement with a previous report by Soengas, M. S. et al., 2001, Nature 409.207-211, SK-MeI-28 cells, carrying a mutated p53, were relatively resistant to killing by adriamycin, as well as to killing by other chemotherapeutic agents. For SK-MeI-28 melanoma cells, the maximal apoptotic response for adriamycin, etoposide, cisplatin, and z-Leu-Leu-Nle-CHO was 12.0%, 2.6%, 4.0%, and 29.4%, respectively. For RJ002L melanoma cells, the maximal apoptotic response for adriamycin, etoposide, cisplatin, and z-Leu-Leu-Nle-CHO was 23.9%, 12.7%, 3.4%, and 45.7%, respectively.

PC-3 prostate cells = assay: z-Leu-Leu-Nle-CHO on NOXA and apoptosis in PC-3 prostate cells; type: cell-based; conditions: 10 μM
[1] = system: T47D:A18 breast cancer cells; assay: Cytotoxicity assay in T47D:A18 breast cancer cells; type: cell-based; conditions: T47D:A18 (p53 wild-type, ERα-positive); 48 h; read-out: IC50, cell growth inhibition
Description: Cytotoxicity and growth of transfected cells were estimated by a standard assay used for cancer drug screening, through the total amount of TCA-precipitated cell proteins after drug treatment (Likhitwitayawuid, K et al., 1993, J Nat Prod 56:30-38): 200 μl of cell suspension (10^5 cells/ml) were added to each well in a 96-well plate. After incubation at, 37° C., in 5% CO2 (30 minutes to 72 hours depending on the time course chosen), 50 μl 50% trichloroacetic acid was added to each well. After incubation at 4° C. for 1 hour, precipitates were washed with water 4-5 times and air dried overnight. One hundred μl of SRB solution (0.4% sulforhodamine B in 1% acetic acid, filtered before use) was added to each well for 30 minutes. Wells were washed with 1% acetic acid 4-5 times and air dried. Two hundred μl 10 mM Tris base was added to each well. Plates were shaken for 5-10 minutes and OD at 490 nm (OD490) was recorded via ELISA reader. To assay matrix invasion, 300 μl of cell suspension (10^6 cells/mL in serum-free medium) were added to invasion inserts (BioCoat Matrigel Invasion Chambers, Becton Dickinson, Bedford, Mass.) and incubated for 22 hours at 37° C., 5% CO2. Cells were stained with 0.9% crystal violet in 10% ethanol for 20 minutes. […] After removal of the non-invading cells from the interior of the inserts, stained invading cells were lysed in 10% acetic acid and OD595 was determined. […]

CaSki cells = assay: LY411,575 combinations in CaSki cells, growth inhibition and isobologram analysis; type: cell-based, human; conditions: CaSki
Description: To evaluate the possibility that inhibition of Notch signaling may sensitize advanced cervical cancers to the effect of cisplatin chemotherapy because Notch-1 protects these cells from apoptosis through the AKT and NF-κB pathways, a non-peptide, benzodiazepine gamma-secretase inhibitor, LY411,575 (Wong et al., 2004, J Biol. Chem. 279:12876-82) was tested in combination with a AKT inhibitor (AKT inhibitor I) or a proteasome inhibitor (MG-132) for effects on cell growth. The latter class of drugs is thought to act primarily by preventing NF-KB activation (Adams, J, 2002, Curr Opin Oncol 14:628-634; Richardson, P, 2003, Cancer Treat Rev 29 Suppl 1:33-39) caused by proteasome-mediated degradation of IκB.
To determine whether LY411,575 potentiates the effect of AKT inhibitor I or MG-132, CaSki cells were treated with (a) LY411,575 (6.25 μM to 50 μM) and AKT inhibitor 1 (0.5 μM to 75 μM), or (b) LY411,575 (1.5 μM to 200 μM) and MG-132 (0.05 μM to 0.2). Following the drug treatment, the cells were tested for growth inhibition as described above. LY411,575 was synthesized according to methods well known in the art (e.g., see WO-09828268, which is incorporated by reference), and AKT inhibitor I and MG-132 were purchased from Calbiochem.
The IC50 values of LY411,575 in the presence of various concentrations of AKT inhibitor I or MG-132 were measured. […]

CC(C)C[C@H](NC(=O)[C@H](Cc1ccccc1)NC(=O)c1cnccn1)B(O)O [bortezomib, N-(2-pyrazine)carbonyl-L-phenylalanine-L-leucine boronic acid]
tumor growth (C8161 melanoma tumors; 1.25 mg/kg or 2.5 mg/kg, four peri-tumoral injections, compared to PBS): regression of melanoma tumors occurred
tumor weight (C8161 melanoma tumors; 1.25 mg/kg versus PBS, day 20): significant (p<0.01) reduction in tumor weight
histological appearance of tumor (H&E) (C8161 melanoma tumors; 2.5 mg/kg): scattered apoptotic C8161 cells are present
tumor weight (C8161 melanoma tumors; 2.5 mg/kg dose compared with 1.25 mg/kg): no further reduction was apparent

CCCC[C@@H](C=O)NC(=O)[C@H](CC(C)C)NC(=O)[C@H](CC(C)C)NC(=O)OCc1ccccc1 [z-Leu-Leu-Nle-CHO, N-benzyloxycarbonyl-leucyl-leucyl-norleucinal] (Cbz-Leu-Leu-[Nle]-aldehyde)
maximal apoptotic response (RJ002L melanoma cells): 45.7%
NOXA expression (PC-3 prostate cells; PC-3, p53 null): induced expression of NOXA
dead cells (PC-3 prostate cells; PC-3, after 24 hrs, data not shown): > 50%
IC50 [1]: 570 nM

CC(C)C[C@@H](C=O)NC(=O)[C@H](CC(C)C)NC(=O)[C@H](CC(C)C)NC(=O)OCc1ccccc1 [MG-132, benzoxycarbonyl-Leucyl-Leucyl-Leucyl-aldehyde] (Cbz-Leu-Leu-Leu-aldehyde)
combination with LY411,575 in cytotoxicity assays / isobologram (CaSki cells): striking synergism
